Data published in BindingDB's records for doi:10.1111/cbdd.12529 (Birla Institute of Technology, 2015).

What was measured:
[1] = molecular target: T1, DNA gyrase subunit B (Staphylococcus aureus, UniProt P0A0K8); assay: GyraseB Assay; conditions: pH 7.5
Experimental: Initially, equimolar quantities of about 0.5µM each of E. coli gyraseA and S. aureus gyraseB were incubated for a period of 45 min with salmon sperm DNA (Sigma) in 50mM Tris (pH 7.5), 75mM ammonium acetate buffer for the reconstitution of the hybrid topoisomerases at 4 OC. Later the assay was performed in a 96-well microtiter plate as mentioned earlier (7). […] The reaction was allowed to proceed for 60 min and was quenched by addition of 20uL of malachite green reagent (POMG-25H, Bioassay systems, USA) subsequently absorbance was read at 650nm after 20 mi

[2] = molecular target: T1, DNA gyrase subunit B; assay: Supercoiling Assay; conditions: pH 7.6; 25 °C
Experimental: Supercoiling assay was performed using the commercially available kit (DNA gyrase supercoiling assay kit: SAS4001) from Inspiralis Pvt.limited, Norwich, UK. The assay was performed in 1.5 mL eppendorf tubes at room temperature. […] KOH (pH 7.6), 10 mM magnesium acetate, 10 mM DTT, 2 mM ATP, 500 mM potassium glutamate, 0.05 mg/mL albumin (BSA). While the standard compound novobiocin was the positive control, 4% DMSO was considered as negative control. Subsequently, each reaction was stopped by the addition of 30 µL of Stop dye [40% sucrose, 100 mM Tris-HCl (pH 7.5), 1 mM EDTA and 0.5 mg/mL bromophenol blue] (8), briefly centrifuged for 45 sec and was run in 1% agarose gel in 1X TAE buffer (40mM Tris acetate, 2mM EDTA).

T1 sequence (P0A0K8 whole entry): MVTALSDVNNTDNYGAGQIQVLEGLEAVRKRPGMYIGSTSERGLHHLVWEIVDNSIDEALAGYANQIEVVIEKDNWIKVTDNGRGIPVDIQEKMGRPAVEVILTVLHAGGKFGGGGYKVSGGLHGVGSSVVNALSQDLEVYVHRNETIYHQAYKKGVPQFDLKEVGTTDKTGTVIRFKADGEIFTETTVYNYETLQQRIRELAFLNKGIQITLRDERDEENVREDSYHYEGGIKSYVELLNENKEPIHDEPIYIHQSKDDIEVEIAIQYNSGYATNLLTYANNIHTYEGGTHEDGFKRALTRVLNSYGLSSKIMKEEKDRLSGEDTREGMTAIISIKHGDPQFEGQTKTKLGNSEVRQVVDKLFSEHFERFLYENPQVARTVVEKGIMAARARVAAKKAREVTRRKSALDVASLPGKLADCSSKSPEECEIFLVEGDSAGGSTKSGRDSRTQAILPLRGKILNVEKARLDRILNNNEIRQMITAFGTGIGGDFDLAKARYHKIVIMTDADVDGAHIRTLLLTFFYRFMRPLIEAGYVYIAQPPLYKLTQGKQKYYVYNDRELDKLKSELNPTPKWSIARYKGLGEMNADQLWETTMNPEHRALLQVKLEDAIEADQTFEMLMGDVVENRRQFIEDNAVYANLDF

| Structure (SMILES) | IC50 [1] [µM] | IC50 [2] [µM] |
| --- | --- | --- |
| O=C(O)CCC(=O)Nc1ccc(NC(=O)c2ccc[nH]2)cc1 [4-(4-(1H-pyrrole-2-carboxamido)phenylamino)-4-oxobutanoate (19)] | 42.4 | 13.7 |
| Cc1ccc(C(=O)Nc2ccc(NC(=O)CCC(=O)O)cc2)o1 [4-(4-(5-methylfuran-2-carboxamido)phenylamino)-4-oxobutanoate (14)] | 10.3 | 6.12 |
| Cc1ccc(C(=O)Nc2ccc(NC(=O)CCC(=O)O)cc2)s1 [4-(4-(5-methylthiophene-2-carboxamido)phenylamino)-4-oxobutanoate (17)] | 24.7 | 12.5 |
| O=C(O)CCC(=O)Nc1ccc(NC(=O)c2ccc([N+](=O)[O-])o2)cc1 [4-(4-(5-nitrofuran-2-carboxamido)phenylamino)-4-oxobutanoate (15)] | 28.9 | 25.8 |
| O=C(O)CCC(=O)Nc1ccc(NC(=O)c2ccc([N+](=O)[O-])s2)cc1 [4-(4-(5-nitrothiophene-2-carboxamido)phenylamino)-4-oxobutanoate (18)] | 29.5 | 26.8 |
| O=C(O)CCC(=O)Nc1ccc(NC(=O)c2ccc([N+](=O)[O-])s2)cc1 [4-((4-(5-nitrothiophene-2-carboxamido)phenyl)amino)-4-oxobutanoic acid (10)] | 12.5 | 6.12 |
| O=C(O)CCC(=O)Nc1ccc(NC(=O)c2ccco2)cc1 [4-((4-(furan-2-carboxamido)phenyl)amino)-4-oxobutanoic acid (5)] |  | 3.12 |
| O=C(O)CCC(=O)Nc1ccc(NC(=O)C2CCCO2)cc1 (stereo not drawn) [4-oxo-4-(4-(tetrahydrofuran-2-carboxamido)phenylamino)butanoate (20)] | 11.7 | 6.12 |
| O=C(O)CCC(=O)Nc1ccc(NC(=O)c2cccs2)cc1 [4-oxo-4-((4-(thiophene-2-carboxamido)phenyl)amino)butanoate (16)] | 22 | 12.5 |
| NNC(=O)CCC(=O)Nc1ccc(NC(=O)c2ccc[nH]2)cc1 [N-(4-(4-Hydrazinyl-4-oxobutanamido)phenyl)-1H-pyrrole-2-carboxamide (27)] | 54.9 | 43.1 |
| Cc1ccc(C(=O)Nc2ccc(NC(=O)CCC(=O)NN)cc2)o1 [N-(4-(4-Hydrazinyl-4-oxobutanamido)phenyl)-5-methylfuran-2-carboxamide (22)] | 5.35 | 2.79 |
| Cc1ccc(C(=O)Nc2ccc(NC(=O)CCC(=O)NN)cc2)s1 [N-(4-(4-Hydrazinyl-4-oxobutanamido)phenyl)-5-methylthiophene-2-carboxamide (25)] | 9.71 | 6.12 |
| NNC(=O)CCC(=O)Nc1ccc(NC(=O)c2ccc([N+](=O)[O-])o2)cc1 [N-(4-(4-Hydrazinyl-4-oxobutanamido)phenyl)-5-nitrofuran-2-carboxamide (23)] | 35.5 | 25.1 |
| NNC(=O)CCC(=O)Nc1ccc(NC(=O)c2ccc([N+](=O)[O-])s2)cc1 [N-(4-(4-Hydrazinyl-4-oxobutanamido)phenyl)-5-nitrothiophene-2-carboxamide (26)] | 26.4 | 19.3 |
| NNC(=O)CCC(=O)Nc1ccc(NC(=O)c2ccco2)cc1 [N-(4-(4-Hydrazinyl-4-oxobutanamido)phenyl)furan-2-carboxamide (21)] | 39.4 | 23.9 |
| NNC(=O)CCC(=O)Nc1ccc(NC(=O)C2CCCO2)cc1 (stereo not drawn) [N-(4-(4-Hydrazinyl-4-oxobutanamido)phenyl)tetrahydrofuran-2-carboxamide (28)] | 41.2 | 23.1 |
| NNC(=O)CCC(=O)Nc1ccc(NC(=O)c2cccs2)cc1 [N-(4-(4-Hydrazinyl-4-oxobutanamido)phenyl)thiophene-2-carboxamide (24)] | 32.6 | 28.1 |
